Read-outs that look alike come from different tables or passages of the source.
Columns and labels:
[1] = test system: NCI-H460 non-small cell lung cancer; assay: MTT proliferation inhibition, NCI-H460; format: cell-based; conditions: Homo sapiens, NCI-H460, read-out: Proliferation inhibition rate, NCI-H460 Non-small cell lung cancer
Source text: (§1) 1. Cytotoxicity Assay Using Human Tumor Cell Lines
(§2) Paclitaxel was used as the positive drug.

[2] = test system: A2780 ovarian cancer; assay: MTT proliferation inhibition, A2780; format: cell-based; conditions: Homo sapiens, A2780, read-out: Proliferation inhibition rate, A2780 Ovarian cancer
Source text: as §1, §2

[3] = test system: Du145 prostate cancer; assay: MTT proliferation inhibition, Du145; format: cell-based; conditions: Homo sapiens, DU-145, read-out: Proliferation inhibition rate, DU145 Prostate cancer
Source text: as §1, §2

[4] = test system: K562 leukemia; assay: MTT proliferation inhibition, K562; format: cell-based; conditions: Homo sapiens, K562, read-out: Proliferation inhibition rate, K562 Leukemia
Source text: as §1, §2

[5] = Caco-2 cell monolayer membrane transport assay (Papp and recovery); format: in vitro ADME; conditions: human
Source text: Caco-2 Cell Monolayer Membrane Transport Assay
(§3) Human-derived colorectal adenocarcinoma cell line Caco-2 cell monolayer model was used to study the bidirectional transport of the target compounds from the apical (AP) side to the basolateral (BL) side and from BL side to AP side. HPLC was used for quantitative analysis to calculate transport parameters, apparent permeability coefficient (Papp) and the efflux ratio.

[6] = test system: MCF-7 breast cancer cells; assay: MTT proliferation inhibition, MCF-7; format: cell-based; conditions: Homo sapiens, MCF7, read-out: Proliferation inhibition rate, MCF-7 Breast cancer
Source text: as §1, §2

[7] = test system: A375 melanoma; assay: MTT proliferation inhibition, A375; format: cell-based; conditions: Homo sapiens, A-375, read-out: Proliferation inhibition rate, A375 Melanoma
Source text: as §1, §2

[8] = test system: A549 non-small cell lung cancer; assay: MTT proliferation inhibition, A549; format: cell-based; conditions: Homo sapiens, A549, read-out: Proliferation inhibition rate, A549 Non-small cell lung cancer
Source text: as §1, §2

[9] = Caco-2 bidirectional transport, efflux ratio; conditions: human, Caco-2
Source text: as §3

[10] = test system: HT-29 colon cancer; assay: MTT proliferation inhibition, HT-29; format: cell-based; conditions: Homo sapiens, HT-29, read-out: Proliferation inhibition rate, HT29 Colon cancer
Source text: as §1, §2

[11] = test system: LN-18; assay: MTT proliferation inhibition, LN-18; format: cell-based; conditions: Homo sapiens, LN-18, read-out: Proliferation inhibition rate, LN-18 Gastric canser
Source text: as §1, §2

[12] = test system: MDA-MB-436 breast cancer cells; assay: MTT proliferation inhibition, MDA-MB-436; format: cell-based; conditions: Homo sapiens, MDA-MB-436, read-out: Proliferation inhibition rate, MDA-MB-436 Breast cancer
Source text: as §1, §2

[13] = test system: HL-60 leukemia; assay: MTT proliferation inhibition, HL-60; format: cell-based; conditions: Homo sapiens, HL-60, read-out: Proliferation inhibition rate, HL60 Leukemia
Source text: as §1, §2

[14] = test system: BGC-823 gastric cancer; assay: MTT proliferation inhibition, BGC-823; format: cell-based; conditions: Homo sapiens, BGC-823, read-out: Proliferation inhibition rate, BGC-823 Gastric cancer
Source text: as §1, §2

[15] = test system: HCT 116 colon cancer; assay: MTT proliferation inhibition, HCT 116; format: cell-based; conditions: Homo sapiens, HCT-116, read-out: Proliferation inhibition rate, HCT 116 Colon cancer
Source text: as §1, §2

[16] = test system: breast cancer cell line MCF-7; assay: IC50 on breast cancer cell line MCF-7; format: cell-based; conditions: Homo sapiens
Experimental: From the activity evaluation data of the above-mentioned preliminary screen, it can be seen that the series of taxanes derivatives synthesized in the present invention have activity. Afterward, the compounds are investigated to examine their IC50 values on breast cancer cell line MCF-7. […] Experiments for each compound were independently repeated for three times and multiple holes were used in each experiment. The exposure time of drugs was 72 hours.

[17] = test system: Hela cervical cancer; assay: MTT proliferation inhibition, HeLa; format: cell-based; conditions: Homo sapiens, read-out: Proliferation inhibition rate, HeLa Uterin cancer
Source text: as §1, §2

[18] = test system: B16 melanoma; assay: MTT proliferation inhibition, B16; format: cell-based; conditions: B16, read-out: Proliferation inhibition rate, B16 Melanoma
Source text: as §1, §2

[19] = test system: LNCaP prostate cancer; assay: MTT proliferation inhibition, LNCaP; format: cell-based; conditions: Homo sapiens, read-out: Proliferation inhibition rate, LNCaP Prostate cancer
Source text: as §1, §2

[20] = reported value; cited from earlier work
[21] = test system: Caco-2 cell monolayer; conditions: human
Source text: as §3

[22] = test system: Caco-2 cell monolayer; assay: Caco-2 bidirectional transport, efflux ratio; conditions: Caco-2 cell line (21 days); for efflux ratio: Papp B-A/Papp A-B
Source text: as §3

[23] = Caco-2, Caco-2, A-B, Mean, read-out: Recovery rate in mass, Mean
[24] = Caco-2, Caco-2, A-B, Sample-01, read-out: Papp A-B, Sample-01
[25] = Caco-2, Caco-2, A-B, Sample-01, read-out: Recovery rate in mass, Sample-01
[26] = Caco-2, Caco-2, A-B, Sample-02, read-out: Papp A-B, Sample-02
[27] = Caco-2, Caco-2, A-B, Sample-02, read-out: Recovery rate in mass, Sample-02
[28] = MCF7, 72 h, read-out: MCF-7 (IC50, nM)
[29] = Caco-2, Caco-2, A-B, Mean, read-out: Papp A-B, Mean

## CO[C@H]1C[C@H]2OC[C@@]2(OC(C)=O)[C@H]2[C@H](OC(=O)c3ccccc3)[C@]34OC(=O)O[C@H]3[C@H](OC(=O)[C@H](O)[C@@H](NC(=O)OC(C)(C)C)c3ccccn3)C(C)=C([C@@H](OC(=O)N(C)C)C(=O)[C@]12C)C4(C)C [PCMI-09]
[1]
  inhibition at 1 µM: 85.8%
[2]
  inhibition at 1 µM: 95.6%
[3]
  inhibition at 1 µM: 90.3%
[4]
  inhibition at 1 µM: 92.6%
[5]; [23]
  recovery: 76.5%
[5]; [24]
  Papp A→B: 5.78 ×10⁻⁶ cm/s
[5]; [25]
  recovery: 70.4%
[5]; [26]
  Papp A→B: 3.59 ×10⁻⁶ cm/s
[5]; [27]
  recovery: 82.6%
[6]
  inhibition at 1 µM: 89.8%
[7]
  inhibition at 1 µM: 96.9%
[8]
  inhibition at 1 µM: 75.8%
[9]
  Papp A→B: 3.56 ×10⁻⁶ cm/s
  Papp B→A: 29 ×10⁻⁶ cm/s
  efflux ratio: 8.14
[10]
  inhibition at 1 µM: 87.8%
[11]
  inhibition at 1 µM: 95%
[12]
  inhibition at 1 µM: 81.3%
[13]
  inhibition at 1 µM: 98.5%
[14]
  inhibition at 1 µM: 94.9%
[15]
  inhibition at 1 µM: 65.5%
[16]; [28]
  IC50: 14.31 ± 0.12 nM
[17]
  inhibition at 1 µM: 101%
[18]
  inhibition at 1 µM: 81.7%
[19]
  inhibition at 1 µM: 86.2%

## CO[C@H]1C(=O)[C@]2(C)[C@@H](OC)C[C@H]3OC[C@@]3(OC(C)=O)[C@H]2[C@H](OC(=O)c2ccccc2)[C@]23OC(=O)O[C@H]2[C@H](OC(=O)[C@H](O)[C@@H](NC(=O)OC(C)(C)C)c2ccccn2)C(C)=C1C3(C)C [PCMI-04]
[1]
  inhibition at 1 µM: 81.8%
[2]
  inhibition at 1 µM: 94.7%
[3]
  inhibition at 1 µM: 83.9%
[4]
  inhibition at 1 µM: 91.5%
[5]; [23]
  recovery: 75.9%
[5]; [24]
  Papp A→B: 4.46 ×10⁻⁶ cm/s
[5]; [25]
  recovery: 85.2%
[5]; [26]
  Papp A→B: 2.86 ×10⁻⁶ cm/s
[5]; [27]
  recovery: 66.5%
[6]
  inhibition at 1 µM: 101%
[7]
  inhibition at 1 µM: 82.2%
[8]
  inhibition at 1 µM: 66.3%
[9]
  Papp A→B: 3.21 ×10⁻⁶ cm/s
  Papp B→A: 26.4 ×10⁻⁶ cm/s
  efflux ratio: 8.24
[10]
  inhibition at 1 µM: 88.3%
[11]
  inhibition at 1 µM: 91.8%
[12]
  inhibition at 1 µM: 79.4%
[13]
  inhibition at 1 µM: 95.8%
[14]
  inhibition at 1 µM: 89.8%
[15]
  inhibition at 1 µM: 55%
[16]; [28]
  IC50: 3.4 ± 0.14 nM
[17]
  inhibition at 1 µM: 98.3%
[18]
  inhibition at 1 µM: 73.2%
[19]
  inhibition at 1 µM: 79.2%

## CC(=O)O[C@H]1C(=O)[C@@]2(C)[C@H]([C@H](OC(=O)c3ccccc3)[C@]3(O)C[C@H](OC(=O)[C@H](O)[C@@H](NC(=O)c4ccccc4)c4ccccc4)C(C)=C1C3(C)C)[C@]1(OC(C)=O)CO[C@@H]1C[C@@H]2O [Paclitaxel, reference compound]
[5]; Caco-2, Papp A-B, Mean
  Papp A→B: 0.97 ×10⁻⁶ cm/s
[5]; Caco-2, Papp A-B, Sample-01
  Papp A→B: 1.02 ×10⁻⁶ cm/s
[5]; Caco-2, Papp A-B, Sample-02
  Papp A→B: 0.93 ×10⁻⁶ cm/s
[5]; Caco-2, Recovery rate in mass, Mean
  recovery: 101%
[5]; Caco-2, Recovery rate in mass, Sample-01
  recovery: 94.6%
[5]; Caco-2, Recovery rate in mass, Sample-02
  recovery: 107%
[20]
  reported absolute oral bioavailability: less than 6%
[16]; MCF7, 72 hours exposure, mean±SD of three experiments, read-out: MCF-7 (IC50)
  IC50: 7.05 nM
[21]
  Papp A-B: 0.97 10^−6 cm/s
  Papp B-A: 33.39 10^−6 cm/s
  efflux ratio: 34.38

## CO[C@H]1C(=O)[C@]2(C)[C@@H](OC)C[C@H]3OC[C@@]3(OC(C)=O)[C@H]2[C@H](OC(=O)c2ccccc2)[C@]23OC(=O)O[C@H]2[C@H](OC(=O)[C@H](O)[C@@H](NC(=O)OC(C)(C)C)c2ccccc2)C(C)=C1C3(C)C [PCMI-01]
[1]
  inhibition at 1 µM: 87.9%
[2]
  inhibition at 1 µM: 96.7%
[3]
  inhibition at 1 µM: 87.8%
[4]
  inhibition at 1 µM: 92.8%
[5]; [29]
  Papp A→B: 4.17 ×10⁻⁶ cm/s
[5]; [23]
  recovery: 54.7%
[5]; [24]
  Papp A→B: 4.47 ×10⁻⁶ cm/s
[5]; [25]
  recovery: 48.2%
[5]; [26]
  Papp A→B: 3.87 ×10⁻⁶ cm/s
[5]; [27]
  recovery: 61.2%
[6]
  inhibition at 1 µM: 96%
[7]
  inhibition at 1 µM: 90.8%
[8]
  inhibition at 1 µM: 66.9%
[22]
  Papp A-B: 2.83 10^−6 cm/s
  Papp B-A: 18.20 10^−6 cm/s
  efflux ratio: 6.42
[10]
  inhibition at 1 µM: 89.4%
[11]
  inhibition at 1 µM: 92.8%
[12]
  inhibition at 1 µM: 81.5%
[13]
  inhibition at 1 µM: 96.6%
[14]
  inhibition at 1 µM: 93.1%
[15]
  inhibition at 1 µM: 59.7%
[16]; [28]
  IC50: 2.1 ± 0.08 nM
[17]
  inhibition at 1 µM: 101%
[18]
  inhibition at 1 µM: 78.1%
[19]
  inhibition at 1 µM: 80.7%

## CO[C@H]1C(=O)[C@]2(C)CC[C@H]3OC[C@@]3(OC(C)=O)[C@H]2[C@H](OC(=O)c2ccccc2)[C@]23OC(=O)O[C@H]2[C@H](OC(=O)[C@H](O)[C@@H](NC(=O)OC(C)(C)C)c2ccccc2)C(C)=C1C3(C)C [PCMI-07]
[1]
  inhibition at 1 µM: 82.7%
[2]
  inhibition at 1 µM: 95%
[3]
  inhibition at 1 µM: 86.8%
[4]
  inhibition at 1 µM: 94%
[5]; [29]
  Papp A→B: 2.64 ×10⁻⁶ cm/s
[5]; [23]
  recovery: 50.3%
[5]; [24]
  Papp A→B: 3.24 ×10⁻⁶ cm/s
[5]; [25]
  recovery: 54.2%
[5]; [26]
  Papp A→B: 2.05 ×10⁻⁶ cm/s
[5]; [27]
  recovery: 46.3%
[6]
  inhibition at 1 µM: 87.1%
[7]
  inhibition at 1 µM: 92.5%
[8]
  inhibition at 1 µM: 74.9%
[22]
  Papp A-B: 2.64 10^−6 cm/s
  Papp B-A: 25.26 10^−6 cm/s
  efflux ratio: 9.56
[10]
  inhibition at 1 µM: 86.6%
[11]
  inhibition at 1 µM: 96.1%
[12]
  inhibition at 1 µM: 80.5%
[13]
  inhibition at 1 µM: 97.5%
[14]
  inhibition at 1 µM: 94.1%
[15]
  inhibition at 1 µM: 68.8%
[16]; [28]
  IC50: 4.49 ± 0.02 nM
[17]
  inhibition at 1 µM: 100%
[18]
  inhibition at 1 µM: 78.6%
[19]
  inhibition at 1 µM: 84.9%

## COC(=O)O[C@H]1C[C@H]2OC[C@@]2(OC(C)=O)[C@H]2[C@H](OC(=O)c3ccccc3)[C@]34OC(=O)O[C@H]3[C@H](OC(=O)[C@H](O)[C@H](CC(C)C)NC(=O)OC(C)(C)C)C(C)=C([C@@H](OC)C(=O)[C@]12C)C4(C)C [PCMI-20]
[1]
  inhibition at 1 µM: 86.8%
[2]
  inhibition at 1 µM: 95.5%
[3]
  inhibition at 1 µM: 88.6%
[4]
  inhibition at 1 µM: 93.8%
[5]; [29]
  Papp A→B: 0.92 ×10⁻⁶ cm/s
[5]; [23]
  recovery: 86.5%
[5]; [24]
  Papp A→B: 1.08 ×10⁻⁶ cm/s
[5]; [25]
  recovery: 89.8%
[5]; [26]
  Papp A→B: 0.75 ×10⁻⁶ cm/s
[5]; [27]
  recovery: 83.3%
[6]
  inhibition at 1 µM: 85.4%
[7]
  inhibition at 1 µM: 93.4%
[8]
  inhibition at 1 µM: 80.4%
[22]
  Papp B-A: 7.16 10^−6 cm/s
  efflux ratio: 7.81
[9]
  Papp A→B: 0.92 ×10⁻⁶ cm/s
[10]
  inhibition at 1 µM: 87.2%
[11]
  inhibition at 1 µM: 94.3%
[12]
  inhibition at 1 µM: 81.1%
[13]
  inhibition at 1 µM: 96.9%
[14]
  inhibition at 1 µM: 95%
[15]
  inhibition at 1 µM: 68.6%
[16]; [28]
  IC50: 2.94 ± 0.04 nM
[17]
  inhibition at 1 µM: 101%
[18]
  inhibition at 1 µM: 81.6%
[19]
  inhibition at 1 µM: 86%
